Here are results for 27 molecules from patent US10442803B2, “Tricyclic heterocycles as bet protein inhibitors” (Incyte Corporation, priority 2013, dated 2019).

Structures can show the parent of a compound that is named as a salt. Bounds are passed on as bounds.

Broadly, the IC50 is the midpoint of a concentration-inhibition curve.

In this assay the test system is KMS.12.BM cells. Kind of assay: KMS.12.BM cell viability assay. As to conditions: 72 h; KMS.12.BM human myeloma cells, 3 days, Cell Titer-GLO ATP quantitation; read-out: KMS cellular IC50. The class given is cell-based. The procedure:
KMS.12.BM cell line (human myeloma) was purchased from JCRB (Osaka, Japan) and maintained in RPMI with 10% FBS culture medium. To measure the cytotoxic activity of the compounds through ATP quantitation, the KMS.12.BM cells are plated in the RPMI culture medium at 5000 cells/well/per 100 μL into a 96-well polystyrene clear black tissue culture plate (Greiner-bio-one through VWR, NJ), in the presence or absence of a concentration range of test compounds. After 3 days, […] Cell Titer-GLO Luminescent (Promega, Madison, Wis.) cell culture agent is added to each well for 10 minutes at room temperature to stabilize the luminescent signal. This determines the number of viable cells in culture based on quantitation of the ATP present, which signals the presence of metabolically active cells. Luminescence is measured with the Top Count 384 (Packard Bioscience through Perkin Elmer, Boston, Mass.).
IC50 data for the Examples is presented in Table 4 as determined by Assay B1.
On the technique in general: Cellular ATP, detected with luciferase, serves as a proxy for viable cell number.
Turning to `Cc1nnc2ccc3c(ccn3C(C)c3ccccc3)n12` (racemic) [Example 4, 1-methyl-6-(1-phenylethyl)-6H-pyrrolo[2,3-e][1,2,4]triazolo[4,3-a]pyridine], the IC50 lay in the range of 1000 to 10000 nM.
In the case of `CCCCC(c1ccccc1)n1c(C)cc2c1ccc1nnc(C)n12` (racemic) [Example 24, 1,7-dimethyl-6-(1-phenylpentyl)-6H-pyrrolo[2,3-e][1,2,4]triazolo[4,3-a]pyridine], the IC50 was 1000 to 10000 nM.
In the case of `Cc1nnc2ccc3c(cc(-c4ccn(C(C)CC#N)n4)n3Cc3ccccc3)n12` (racemic) [Example 87, 3-[3-(6-benzyl-1-methyl-6H-pyrrolo[2,3-e][1,2,4]triazolo[4,3-a]pyridin-7-yl)-1H-pyrazol-1-yl]butanenitrile trifluoroacetate salt (racemate)], the IC50 was not above 1000 nM.
With `Cc1nnc2ccc3c(cc(-c4ccn(CC(C)C#N)n4)n3Cc3ccccc3)n12` (racemic) [Example 88, 3-[3-(6-benzyl-1-methyl-6H-pyrrolo[2,3-e][1,2,4]triazolo[4,3-a]pyridin-7-yl)-1H-pyrazol-1-yl]-2-methylpropanenitrile trifluoroacetate salt (racemate)] the figure was not above 1000 nM.
`Cc1cc2c(cc(NC3CCCN(C)C3)c3nnc(C)n32)n1Cc1ccccc1` (racemic) [Example 144, 6-benzyl-1,7-dimethyl-N-(1-methylpiperidin-3-yl)-6H-pyrrolo[2,3-e][1,2,4]triazolo[4,3-a]pyridin-4-amine (racemic)]: the IC50 lay in the range of 1000 to 10000 nM.
On to `Cc1cc2c(cc(NC3CCN(C)C3)c3nnc(C)n32)n1Cc1ccccc1` (racemic) [Example 145, 6-benzyl-1,7-dimethyl-N-(1-methylpyrrolidin-3-yl)-6H-pyrrolo[2,3-e][1,2,4]triazolo[4,3-a]pyridin-4-amine bis(trifluoroacetate) salt (racemic)], for which the IC50 was not above 1000 nM.
With `Cc1nnc2ccc3c(cc(-c4ncco4)n3Cc3cc(Cl)cc(CN4CCC(O)C4)c3)n12` (racemic) [Example 199, 1-(3-Chloro-5-{[1-methyl-7-(1,3-oxazol-2-yl)-6H-pyrrolo[2,3-e][1,2,4]triazolo[4,3-a]pyridin-6-yl]methyl}benzyl)pyrrolidin-3-ol bis(trifluoroacetate) salt (racemic)] the figure was not above 1000 nM; with `Cc1cc2c(cc(N[C@H]3CCN(C)[C@H](C)C3)c3nnc(C)n32)n1Cc1ccccc1` (racemic) [Example 225, 6-Benzyl-N-[(2R,4S)-1,2-dimethylpiperidin-4-yl]-1,7-dimethyl-6H-pyrrolo[2,3-e][1,2,4]triazolo[4,3-a]pyridin-4-amine and 6-Benzyl-N-[(2S,4R)-1,2-dimethylpiperidin-4-yl]-1,7-dimethyl-6H-pyrrolo[2,3-e][1,2,4]triazolo[4,3-a]pyridin-4-amine], not above 1000 nM; with `Cc1cc2c(cc(N[C@H]3CC[C@@H](C#N)CC3)c3nnc(C)n32)n1Cc1ccccc1` (single isomer, unassigned) [Example 215 b, 4-[(6-benzyl-1,7-dimethyl-6H-pyrrolo[2,3-e][1,2,4]triazolo[4,3-a]pyridin-4-yl)amino]cyclohexanecarbonitrile trifluoroacetate salt], 1000 to 10000 nM.
With `Cc1nnc2ccc3c(ccn3Cc3ccccc3)n12` [Example 1, 6-benzyl-1-methyl-6H-pyrrolo[2,3-e][1,2,4]triazolo[4,3-a]pyridine] the figure was 1000 to 10000 nM; with `Cc1cc2c(ccc3nnc(C)n32)n1Cc1ccccc1` [Example 2, 6-benzyl-1,7-dimethyl-6H-pyrrolo[2,3-e][1,2,4]triazolo[4,3-a]pyridine], not above 1000 nM; with `Cc1cc2c(ccc3nnc(C)n32)n1S(=O)(=O)c1ccccc1` [Example 2a, 1,7-dimethyl-6-(phenylsulfonyl)-6H-pyrrolo[2,3-e][1,2,4]triazolo[4,3-a]pyridine], 1000 to 10000 nM.
Consider `Cc1nnc2ccc3c(ccn3S(=O)(=O)c3ccccc3)n12` [Example 3, 1-methyl-6-(phenylsulfonyl)-6H-pyrrolo[2,3-e][1,2,4]triazolo[4,3-a]pyridine], for which the IC50 lay within 1000 to 10000 nM.
With `Cc1cc2c(ccc3nnc(C)n32)n1CCc1ccccc1` [Example 6, 1,7-dimethyl-6-(2-phenylethyl)-6H-pyrrolo[2,3-e][1,2,4]triazolo[4,3-a]pyridine] the figure was 1000 to 10000 nM.
For the molecule `Cc1cc2c(ccc3nnc(C)n32)n1Cc1ccccn1` [Example 7, 1,7-dimethyl-6-(pyridin-2-ylmethyl)-6H-pyrrolo[2,3-e][1,2,4]triazolo[4,3-a]pyridine], the IC50 is 1000 to 10000 nM.
With `Cc1cc2c(ccc3nnc(C)n32)n1Cc1ccccc1Cl` [Example 8, 6-(2-chlorobenzyl)-1,7-dimethyl-6H-pyrrolo[2,3-e][1,2,4]triazolo[4,3-a]pyridine] the figure was not above 1000 nM; with `Cc1cc2c(ccc3nnc(C)n32)n1Cc1cccc(Cl)c1` [Example 9, 6-(3-chlorobenzyl)-1,7-dimethyl-6H-pyrrolo[2,3-e][1,2,4]triazolo[4,3-a]pyridine], not above 1000 nM; with `Cc1cc2c(ccc3nnc(C)n32)n1Cc1ccc(Cl)cc1` [Example 10, 6-(4-chlorobenzyl)-1,7-dimethyl-6H-pyrrolo[2,3-e][1,2,4]triazolo[4,3-a]pyridine], not above 1000 nM.
As to `Cc1cc2c(ccc3nnc(C)n32)n1Cc1cccnc1` [Example 11, 1,7-dimethyl-6-(pyridin-3-ylmethyl)-6H-pyrrolo[2,3-e][1,2,4]triazolo[4,3-a]pyridine], the IC50 is 1000 to 10000 nM.
Consider `Cc1cc2c(ccc3nnc(C)n32)n1CC1CCCC1` [Example 13, 6-(cyclopentylmethyl)-1,7-dimethyl-6H-pyrrolo[2,3-e][1,2,4]triazolo[4,3-a]pyridine], for which the IC50 lay in the range of 1000 to 10000 nM.
With `Cc1cc2c(ccc3nnc(C)n32)n1Cc1ccccc1F` [Example 14, 6-(2-fluorobenzyl)-1,7-dimethyl-6H-pyrrolo[2,3-e][1,2,4]triazolo[4,3-a]pyridine], the IC50 was not above 1000 nM.
`Cc1cc2c(ccc3nnc(C)n32)n1Cc1cccc(F)c1` [Example 15, 6-(3-fluorobenzyl)-1,7-dimethyl-6H-pyrrolo[2,3-e][1,2,4]triazolo[4,3-a]pyridine]: the IC50 was not above 1000 nM.
Under `Cc1cc2c(ccc3nnc(C)n32)n1Cc1ccc(F)cc1` [Example 16, 6-(4-fluorobenzyl)-1,7-dimethyl-6H-pyrrolo[2,3-e][1,2,4]triazolo[4,3-a]pyridine] stands not above 1000 nM; under `Cc1ccccc1Cn1c(C)cc2c1ccc1nnc(C)n12` [Example 17, 1,7-dimethyl-6-(2-methylbenzyl)-6H-pyrrolo[2,3-e][1,2,4]triazolo[4,3-a]pyridine], not above 1000 nM.
As for `Cc1cccc(Cn2c(C)cc3c2ccc2nnc(C)n23)c1` [Example 18, 1,7-dimethyl-6-(3-methylbenzyl)-6H-pyrrolo[2,3-e][1,2,4]triazolo[4,3-a]pyridine], the IC50 was not above 1000 nM.
Turning to `Cc1ccc(Cn2c(C)cc3c2ccc2nnc(C)n23)cc1` [Example 19, 1,7-dimethyl-6-(4-methylbenzyl)-6H-pyrrolo[2,3-e][1,2,4]triazolo[4,3-a]pyridine], the IC50 was not above 1000 nM.
`Cc1cc2c(ccc3nnc(C)n32)n1Cc1cccc(C#N)c1` [Example 20, 3-[(1,7-dimethyl-6H-pyrrolo[2,3-e][1,2,4]triazolo[4,3-a]pyridine-6-yl)methyl]benzonitrile]: the IC50 was not above 1000 nM.
